Here are results for one compound from patent US20060129385A1, “Cholinergic therapy for individuals with learning disabilities” (priority 2002, published 2006).

Data set [1] has as its system individuals with Down's Syndrome. As to the kind of experiment: Test of Problem Solving (TOPS), 24 week open study of donepezil. Format: in vivo, human. Here is the method: (§1) In the current study, we specifically examined the effects of donepezil and tested the hypothesis that expressive language performance in individuals with Down's Syndrome would improve with donepezil treatment. Language performance was measured with two objective measures, the Test of Problem Solving [Zachman et al., 1984] and the Clinical Evaluation of Language Fundamentals-Revised [Semel et al., 1986].
Measures: The Test of Problem Solving [TOPS: Zachman et al., 1984]: The TOPS is an expressive language test that measures the ability to verbally identify reasonable solutions to problems presented via pictures. It has been used to assess pragmatic language ability in patients with AD. [Ripich et al., 1997]. The TOPS consists of 15 pictured scenarios with accompanying questions about each picture. The standard set of questions is designed to have the subject make inferences, to determine causes of particular events, to determine solutions to pictured problems, and to determine strategies for avoiding problems. The instrument was standardized on 1578 individuals (ages 6 years-0 months to 11 years-11 months). Age equivalent scores are provided for ages 3 years-5 months to 15 years-9 months. Validity and reliability data are available. TOPS raw scores for the overall [test as recommended by Powell, 1993] were determined by the average of two independent observers, one scoring onsite and a second scoring from audiotaped recordings of the test sessions.
(§2) Derivation of Language Level: Due to the absence of appropriate standardized measures for adults with DS, relative language level was determined by comparing subtest performance (raw scores) to the average performance level for five-year-olds. The five year-old level was selected because it is the lowest age level in which both tests provide normative data. For this study, TOPS performance was based on age equivalent scores.
(§3) Clinical Significance of Change: The clinical significance of the change in language performance following treatment was determined by comparing the difference in subject performance (between Baseline and treatment) to the amount of language improvement shown in one year by the average 5-year-old. For the TOPS, this index was the difference between the age equivalent score for children aged 5 years-0 months and the age equivalent score for children aged 6 years-0 months. For the CELF-R subtests, this index was difference between the mean raw scores for 5 year-olds and 6-year-olds.
Statistical Analyses: The main comparisons were changes from Baseline (week 0) assessed by repeated measures. […] Similarly, while we hypothesized an improvement in expressive language, the acceptable p-value was not adjusted to reflect a one-tailed analysis. P-values at or below 0.05 were viewed as significant. Changes on standardized measures were viewed as clinically significant if the magnitude of the observed change was substantial in comparison to the level of performance gain typically achieved by children in the 12 month period between age 5 and age 6. Across all measures, the performance gain between age 5 and age 6 is the highest rate of language gain recorded for any 12-month period.

Data set [2] has the same test system. The experiment in a line: Clinical Evaluation of Language Fundamentals-Revised (CELF-R), 24 week open study of donepezil. Format: in vivo, human. Here is the method:
as §1
The Clinical Evaluation of Language Fundamentals-Revised (CELF-R: Semel et al., 1986]: The CELF-R is a diagnostic language test designed to assess language form and content, aspects of language generally regarded as fundamental to effective, oral—communication. Standardized expressive, receptive and overall language scores are derived from the summation of individual subtest scores. Typically, overall expressive and receptive language are evaluated by collapsing the subtest performance into a single receptive: or expressive language score. Individual subtest performance is analyzed for specific impairment within the broader expressive and receptive language domains. The instrument was standardized on 2,333 individuals (ages 5-0 to 16-11). Validity and reliability norms are available and adequate for each subtest.
as §2, §3
Statistical Analyses: The main comparisons were changes from Baseline (week 0) assessed by repeated measures. […] Similarly, while we hypothesized an improvement in expressive language, the acceptable p-value was not adjusted to reflect a one-tailed analysis. P-values at or below 0.05 were viewed as significant. […] Across all measures, the performance gain between age 5 and age 6 is the highest rate of language gain recorded for any 12-month period.

The test system is the same in data set [3]. The protocol:
Subjects: After obtaining IRB approval and written informed consent, 5 males and […] with DS (confirmed by karyotyping), between the ages of 20-41 years (mean age=29 years), were enrolled in the trial. All subjects were verbal, able to hear speech at conversational level, and able to ingest oral medication. […] All individuals were evaluated for thyroid disorders and for Vitamin B 12 deficiency within 6 months of entry into the trial. […] Subject IQs ranged from 40 to 60 (mean IQ=52). The IQs of four subjects were determined during the baseline visit because testing had not been performed in the last 10 years. The IQ's of the two youngest subjects were determined from school records.
Study Design: This was a 24 week open study at the General Clinical Outpatient Research Unit at Duke University in which subjects attended three sessions, Week 0 (Baseline), Week 12 (Treatment-12), and Week 24 (Termination). Due to scheduling limitations, the average first post-treatment visit was at Week 13 and the second post-treatment visit was at Week 25. A physical exam and language testing were completed at all sessions. A checklist for medication related adverse events was performed at Week 12 and at study termination. At the completion of the Baseline visit, donepezil was dosed orally at 5 mg once daily for 6 weeks. The dose was increased to 10 mg (two 5 mg tablets) daily for the remaining weeks if the 5 mg dose was well tolerated. This dosage schedule was based on experience from a previous trial [Kishnani et al 1999] and the donepezil package insert. Patients were monitored closely for safety and tolerability of the medication by regular phone calls in between scheduled visits. Two language measures were used, the Test of Problem Solving (TOPS) and the Clinical Evaluation of Language Fundamentals-Revised (CELF-R). The TOPS was completed at Baseline and at Weeks 12 and 24 of treatment. The CELF-R was completed at Baseline and at Week 24.

Data set [4] relates to DS patients. To be noted: human, in vivo; cited from earlier work.

Regarding `COc1cc2c(cc1OC)C(=O)C(CC1CCN(Cc3ccccc3)CC1)C2` (stereo not shown) [donepezil], the “change in TOPS performance, Treatment-12 weeks vs. Termination” value in data set [1] (after 12 additional weeks of treatment (24 weeks), paired samples t=0.52, p=0.6313) is reported as “No change”. Moreover, the “overall TOPS performance gain” value in data set [1] (after 12 weeks of treatment vs Baseline, oral 5 mg once daily for 6 weeks, then 10 mg daily, adults with DS, paired t=4.5, p=0.0107) came out at 6.5; in data set [1] (after 24 weeks of treatment (Termination) vs Baseline, oral 5 mg then 10 mg daily, paired t=1.10, p=0.0513), 5.1. For the same compound, the “clinical significance: overall TOPS performance gain relative to gain expected by the average five-year-old in one year of development” value in data set [1] (after treatment) is “more than one-half”. Besides, the “performance on the TOPS, Baseline vs. Treatment-12 weeks” value in data set [1] (following 12 weeks of treatment, paired samples t=4.5, p=0.0107) is given as “significantly improved performance”. Also, the “CELF-R subtests showing gains” value in data set [2] (following 24 weeks of donepezil treatment, n=5) is 5 of 6. In data set [2] (following 24 weeks of treatment, p=0.15-0.23 in three expressive subtests and Word Classes), the “significance of CELF-R subtest differences from baseline levels” value is “None of the differences was significantly different”. For the same compound, the “gain in language performance on the CELF-R subtests, High Language Group” value in data set [2] (individuals with higher language skills at Baseline, n=2, following treatment) is given as “large gains”. Also, the “gain on the CELF-R language measures, Low Language Group” value in data set [2] (individuals with lower language skills at Baseline, n=3, following treatment) is “little gain”. For the same compound, in data set [3] (at the 5 mg dosage, each case improved spontaneously), the “subjects with mild cases of diarrhea” value is given as “Five of six subjects”. Besides, in data set [3] (on the 10 mg dosage, six subjects), the “subjects reporting a transient decrease in appetite” value is listed as “one subject”. Further, the “subjects reporting cramps for one day” value in data set [3] (six subjects) is given as “One subject”. In addition, the “adverse effect reported in DS patients” value in data set [4] is on record as “urinary incontinence”.
